Measured values taken from doi:10.1101/2025.11.20.689572v1 (biorxiv, 2025).
pEC50, pKi: −log10 of the molar value.

Legend:
CHRM3 = CHRM3 (Homo sapiens, UniProt P20309); test: cell-based
5-HT1D = biological target: T1, 5-HT1D (Homo sapiens, UniProt P28221); test: competitive radioligand binding, HEK293 membranes
T1 construct: gene HTR1D; full-length receptor; HEK293 with TRUPATH sensors (function)

CHRM1 = biological target: T2, CHRM1 (Homo sapiens, UniProt P11229); test: cell-based; design: species or system HEK293; TRUPATH BRET2 G-protein dissociation; antagonist mode against agonist EC80; conditions: HEK293, read-out: N-Desmethyl Xanomeline, Assay=Gq; agonist mode, % of control agonist
T2 sequence (P11229 1-460): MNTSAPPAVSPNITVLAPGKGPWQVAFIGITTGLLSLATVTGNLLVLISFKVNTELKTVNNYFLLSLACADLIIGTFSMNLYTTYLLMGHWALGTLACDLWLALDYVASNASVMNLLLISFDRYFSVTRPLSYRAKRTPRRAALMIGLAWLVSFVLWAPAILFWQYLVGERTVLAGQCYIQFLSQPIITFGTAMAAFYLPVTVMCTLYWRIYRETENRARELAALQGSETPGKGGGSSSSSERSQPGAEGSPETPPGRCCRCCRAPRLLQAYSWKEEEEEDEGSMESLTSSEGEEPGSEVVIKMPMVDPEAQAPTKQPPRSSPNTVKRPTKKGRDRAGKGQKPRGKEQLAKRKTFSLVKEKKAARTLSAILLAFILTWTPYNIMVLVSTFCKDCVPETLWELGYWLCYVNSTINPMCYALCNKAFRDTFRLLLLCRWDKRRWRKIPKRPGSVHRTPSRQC

D1 = biological target: T3, D1 (Homo sapiens, UniProt P21728); test: competitive radioligand binding, HEK293 membranes
T3 construct: gene DRD1; full-length receptor; HEK293 cell membranes
Description: competitive radioligand binding, HEK293 membranes on D1

5-HT5A = biological target: T4, 5-HT5A (Homo sapiens, UniProt P47898); test: competitive radioligand binding, HEK293 membranes
T4 construct: gene HTR5A; full-length receptor; HEK293 cell membranes
Description: competitive radioligand binding, HEK293 membranes on 5-HT5A

α1A = α1A (Homo sapiens, UniProt P35348); test: biochemical; design: gene ADRA1A; species or system HEK293; PDSP competitive radioligand binding, membranes of transfected HEK293 cells, filtration, Ki by Cheng-Prusoff
Procedure: Competitive radioligand binding assays were performed at the NIMH Psychoactive Drug Screening Program (PDSP) using membranes from transiently transfected HEK293 cells in 96-well format as described. Complete, target-specific protocols are available at the PDSP website (https://pdsp.unc.edu/pdspweb/?site=assays). Primary screenings were run at a single test concentration (10 µM) in quadruplicate. […] Secondary assays were conducted in triplicate using 12-point serial dilutions (0, 0.1, 0.3, 1, 3, 10, 30, 100, 300 nM; 1, 3, 10 µM). Assays were performed in a final volume of 125 µL per well in binding buffer, as detailed in the NIMH PDSP protocols (e.g., standard binding buffer: 50 mM Tris-HCl, pH 7.4, 10 mM MgCl2, 0.1 mM EDTA). Radioligand concentrations were chosen near the target-specific Kd. […] After 90 min incubation at room temperature, reactions were terminated by vacuum filtration onto 0.3% polyethyleneimine-pretreated UniFilter-96 GF/C Microplates using a FilterMate harvester, washed three times with ice-cold buffer (50 mM Tris HCl, pH 7.4), dried, treated with MicroScint-O [compound left out] scintillation cocktails, and counted on a MicroBeta counter. Equilibrium inhibition constants (Ki) were calculated from fitted IC50 values using the Cheng–Prusoff equation [14] with the assay-specific radioligand concentration and Kd. […] ND=not determined.

H3 = biological target: T5, H3 (Homo sapiens, UniProt Q9Y5N1); test: competitive radioligand binding, HEK293 membranes
T5 construct: gene HRH3; full-length receptor; HEK293 cell membranes
Description: competitive radioligand binding, HEK293 membranes on H3

DRD4 = biological target: T6, DRD4 (Homo sapiens, UniProt P21917); test: cell-based; design: PRESTO-Tango beta-arrestin2 recruitment, luciferase luminescence, concentration-response; conditions: HTLA, read-out: Xanomeline; Assay=Tango; agonist mode, % of control agonist
T6 sequence (P21917 1-419): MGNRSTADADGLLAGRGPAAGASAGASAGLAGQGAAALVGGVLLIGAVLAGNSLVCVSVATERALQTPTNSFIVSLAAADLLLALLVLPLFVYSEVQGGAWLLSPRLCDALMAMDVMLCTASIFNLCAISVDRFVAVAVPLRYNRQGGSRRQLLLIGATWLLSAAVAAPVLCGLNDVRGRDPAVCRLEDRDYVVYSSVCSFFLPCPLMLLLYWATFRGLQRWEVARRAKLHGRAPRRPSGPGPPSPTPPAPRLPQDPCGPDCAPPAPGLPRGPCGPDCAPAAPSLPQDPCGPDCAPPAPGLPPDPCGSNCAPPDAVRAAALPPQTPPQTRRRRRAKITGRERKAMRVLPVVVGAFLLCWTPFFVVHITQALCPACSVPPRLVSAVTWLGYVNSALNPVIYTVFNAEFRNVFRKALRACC
Procedure: Off-target agonism across the human GPCRome was profiled using PRESTO-Tango, following established protocols with minor adaptations [10]–[12]. […] After ~6 h recovery, cells were transfected with 20 ng plasmid DNA per well and incubated overnight. The next day, 10 µL of test compound (prepared in DMEM + 1% dFBS) was added, and plates were incubated overnight. Media and compounds were removed, and 20 µL per well of Bright-Glo luciferase reagent diluted in assay buffer (Hank’s Balanced Salt Solution (HBSS), 20 mM HEPES, pH 7.4) was added. After 20 min at room temperature (dark), luminescence was recorded. Each plate included the dopamine D2 receptor (DRD2) stimulated with 100 nM quinpirole as a positive control. For the GPCRome screen, each receptor was tested in quadruplicate at 0 and 10 µM compound (final). Responses were expressed as fold change relative to the basal (0 µM) condition. Follow-up concentration–response assays were performed under identical conditions except that serial dilutions of compounds (maximum ~30 µM, final) were added to generate full concentration–response curves.

α1A, sequence (P35348 whole entry): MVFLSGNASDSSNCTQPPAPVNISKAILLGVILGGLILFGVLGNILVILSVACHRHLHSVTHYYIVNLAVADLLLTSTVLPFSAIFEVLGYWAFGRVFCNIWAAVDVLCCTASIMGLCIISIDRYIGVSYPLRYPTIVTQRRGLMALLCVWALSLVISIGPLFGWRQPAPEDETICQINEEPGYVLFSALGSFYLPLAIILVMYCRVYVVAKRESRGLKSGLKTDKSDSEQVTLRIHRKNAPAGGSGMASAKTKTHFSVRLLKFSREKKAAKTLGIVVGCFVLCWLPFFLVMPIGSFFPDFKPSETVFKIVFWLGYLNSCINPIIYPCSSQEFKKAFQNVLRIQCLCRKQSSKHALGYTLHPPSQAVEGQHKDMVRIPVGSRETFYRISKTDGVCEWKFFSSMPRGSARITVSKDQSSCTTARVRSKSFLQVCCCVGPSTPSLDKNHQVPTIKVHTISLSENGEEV
T5 sequence (Q9Y5N1 whole entry): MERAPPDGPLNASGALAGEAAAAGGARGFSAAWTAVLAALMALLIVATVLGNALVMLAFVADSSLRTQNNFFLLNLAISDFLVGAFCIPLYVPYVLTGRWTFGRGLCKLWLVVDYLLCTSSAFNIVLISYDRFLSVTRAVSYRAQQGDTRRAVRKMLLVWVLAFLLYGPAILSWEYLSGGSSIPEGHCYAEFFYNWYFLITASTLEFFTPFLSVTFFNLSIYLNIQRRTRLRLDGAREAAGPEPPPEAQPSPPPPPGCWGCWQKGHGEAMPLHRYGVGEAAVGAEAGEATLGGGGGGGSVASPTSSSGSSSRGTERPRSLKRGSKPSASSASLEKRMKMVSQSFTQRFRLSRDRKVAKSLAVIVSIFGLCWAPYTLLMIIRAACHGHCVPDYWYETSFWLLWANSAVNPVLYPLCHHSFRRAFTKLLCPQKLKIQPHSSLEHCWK
T1 sequence (P28221 whole entry): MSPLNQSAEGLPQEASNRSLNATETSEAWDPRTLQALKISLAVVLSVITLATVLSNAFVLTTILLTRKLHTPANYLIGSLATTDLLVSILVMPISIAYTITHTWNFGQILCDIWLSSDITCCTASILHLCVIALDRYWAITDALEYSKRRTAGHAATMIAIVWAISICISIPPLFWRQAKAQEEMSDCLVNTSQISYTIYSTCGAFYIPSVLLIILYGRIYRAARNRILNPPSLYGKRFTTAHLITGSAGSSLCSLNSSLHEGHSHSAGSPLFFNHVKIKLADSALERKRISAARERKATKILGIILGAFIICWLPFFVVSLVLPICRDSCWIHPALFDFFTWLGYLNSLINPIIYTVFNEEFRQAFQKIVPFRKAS
T3 sequence (P21728 whole entry): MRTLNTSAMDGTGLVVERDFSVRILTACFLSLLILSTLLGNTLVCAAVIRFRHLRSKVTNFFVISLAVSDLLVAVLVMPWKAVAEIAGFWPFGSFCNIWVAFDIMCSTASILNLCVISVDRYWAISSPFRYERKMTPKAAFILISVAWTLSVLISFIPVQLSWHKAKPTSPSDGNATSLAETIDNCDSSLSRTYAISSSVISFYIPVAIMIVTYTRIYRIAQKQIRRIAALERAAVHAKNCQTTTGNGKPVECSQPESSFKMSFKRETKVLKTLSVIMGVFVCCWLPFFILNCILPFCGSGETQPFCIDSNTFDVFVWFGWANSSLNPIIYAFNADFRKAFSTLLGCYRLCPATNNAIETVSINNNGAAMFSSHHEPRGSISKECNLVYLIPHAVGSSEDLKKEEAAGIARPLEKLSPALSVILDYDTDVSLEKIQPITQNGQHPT
T4 sequence (P47898 whole entry): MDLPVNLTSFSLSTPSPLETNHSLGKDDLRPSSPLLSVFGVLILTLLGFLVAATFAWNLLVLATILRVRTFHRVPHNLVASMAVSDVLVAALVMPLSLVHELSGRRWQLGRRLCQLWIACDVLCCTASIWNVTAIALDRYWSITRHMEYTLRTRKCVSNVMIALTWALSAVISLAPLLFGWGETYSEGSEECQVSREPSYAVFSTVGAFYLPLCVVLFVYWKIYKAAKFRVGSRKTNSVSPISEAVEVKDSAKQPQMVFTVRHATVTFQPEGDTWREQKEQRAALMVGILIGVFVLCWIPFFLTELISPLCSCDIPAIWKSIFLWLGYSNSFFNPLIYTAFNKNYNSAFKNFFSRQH
CHRM3, sequence (P20309 whole entry): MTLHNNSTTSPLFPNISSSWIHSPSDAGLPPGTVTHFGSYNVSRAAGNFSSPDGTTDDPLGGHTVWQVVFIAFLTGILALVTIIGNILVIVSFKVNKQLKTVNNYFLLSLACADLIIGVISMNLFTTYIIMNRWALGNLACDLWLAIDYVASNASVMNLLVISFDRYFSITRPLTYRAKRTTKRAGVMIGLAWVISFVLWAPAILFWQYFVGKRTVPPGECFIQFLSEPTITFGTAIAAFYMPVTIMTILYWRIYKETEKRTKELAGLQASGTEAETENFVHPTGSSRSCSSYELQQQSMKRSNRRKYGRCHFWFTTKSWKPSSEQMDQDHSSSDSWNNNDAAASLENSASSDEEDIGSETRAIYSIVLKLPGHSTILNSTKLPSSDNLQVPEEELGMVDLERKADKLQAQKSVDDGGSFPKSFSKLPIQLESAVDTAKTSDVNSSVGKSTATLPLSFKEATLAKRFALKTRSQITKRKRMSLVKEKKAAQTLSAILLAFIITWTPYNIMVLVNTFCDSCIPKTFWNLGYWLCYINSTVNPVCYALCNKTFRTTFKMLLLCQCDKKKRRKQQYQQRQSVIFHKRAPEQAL

Row | SMILES | pEC50 (CHRM3) | pKi (5-HT1D) | Emax (CHRM1) | pKi (D1) | pKi (5-HT5A) | pKi (α1A) | pKi (H3) | Emax (DRD4)
1 | CCCCCCOc1nsnc1C1=CCCNC1 [N-desmethylxanomeline] | 6.42 | 7.41 | 95.9% |  |  |  |  | 
2 | CCCCCCOc1nsnc1C1=CCCN(C)C1 [Xanomeline] |  |  |  | 5.80 | 6.10 | < 5.00 | 6.10 | 11.4%
